Consider 25 substances from patent US20190315823A1, “SMALL CATIONIC ANTI-BIOFILM AND IDR PEPTIDES” (priority 2013, published 2019).

Ends that are not written are not given here.

Experiment [1] deals with LPS-stimulated human peripheral blood mononuclear cells (IL1-β). Type of experiment: cell-based. Conditions: Table 12, cells stimulated with 10 ng/ml LPS; for IL1β Production: LPS alone 1313 (HH2 derivatives), 1927 (1018 derivatives), 2455 (1002 and hybrid peptides) pg/ml.
The test system of experiment [2] is methicillin resistant Staphylococcus aureus (MRSA) biofilm. Conditions: approximate peptide concentration […] (around 3 μg/ml); compared to untreated samples. The essentials: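 Peptide was present from inoculation onward, with bacteria seeded at 1/100 from overnight cultures into BM2 biofilm medium or Luria Broth. Crystal violet staining of surface-attached cells (A595) quantified biofilm reduction at 22–46 h. K. pneumoniae was additionally screened in a real-time Bioflux flow device for some peptides.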

Experiment [3] concerns human peripheral blood mononuclear cells (MCP-1). Description: SPOT-synthesized derivative screen: production of chemokine MCP-1. Type of experiment: cell-based. Conditions: Table 12, No LPS, human PBMC, peptide at ~18-24 μM; for MCP1: background subtracted 139 (HH2 derivatives), 170 (1018 derivatives), 242 (1002 and hybrid peptides) pg/ml. In outline:
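MCP-1 was quantified by capture ELISA in cleared culture supernatants of treated human peripheral blood mononuclear cells. Cells came from heparinized volunteer blood via Ficoll gradient and were seeded at 0.75 to 1×10^6 cells/ml (37 °C, 5% CO2).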

Consider “1002-W2: single substituted 1002 peptide (VWRWLIVWRIRK-NH2) [Peptide 1002-W2]”, for which, in experiment [1], the “Fold change in IL1β relative to no peptide LPS stimulated cells” value turned out to be 0.05 and the “IL1β Production” value is 127 pg/mL. Moreover, in experiment [2], the “% Biofilm inhibition” value came out at 61%. Besides, in experiment [3], the “Fold increase in MCP1 cf. untreated cells” value (from here on “Fold increase”) amounted to 11.8 and the “MCP1” value turned out to be 2611.5 pg/mL.
On to “1018-K10: single substituted 1018 peptide (VRLIVAVRIKRR-NH2) [Peptide 1018-K10]”, for which, in experiment [1], the “Fold change in IL1β relative to no peptide LPS stimulated cells” value worked out at 0.24 and the “IL1β Production” value amounted to 310 pg/mL. Also, the “% Biofilm inhibition” value in experiment [2] worked out at 63%. Also, in experiment [3], the “Fold increase” value was 3.3 and the “MCP1” value came to 390 pg/mL.
On the same counts, the results for “1018-Q1: single substituted 1018 peptide (QRLIVAVRIWRR-NH2) [Peptide 1018-Q1]” are 0.12, 158 pg/mL, 46%, 3.1 and 363 pg/mL.
Take “HH2-V6: single substituted HH2 peptide (VQLRIVVAVIRA-NH2)”: in experiment [1], the “Fold change in IL1β relative to no peptide LPS stimulated cells” value worked out at 0.53 and the “IL1β Production” value was 694 pg/mL. The “% Biofilm inhibition” value in experiment [2] is given as 39%. Moreover, in experiment [3], the “Fold increase” value turned out to be 40 and the “MCP1” value is 6624 pg/mL.
On the same counts, the results for “1002-G3: single substituted 1002 peptide (VQGWLIVWRIRK-NH2) [Peptide 1002-G3]” are 0.05, 127 pg/mL, 56%, 14.0 and 3157.8 pg/mL.
The like results for “HH2-I8: single substituted HH2 peptide (VQLRIRVIVIRA-NH2)” were, in that order, 0.53, 701 pg/mL, 74%, 17 and 2789 pg/mL.
On the same counts, the results for “HH2-A7: single substituted HH2 peptide (VQLRIRAAVIRA-NH2)” are 1.30, 1713 pg/mL, 57%, 1.3 and 59 pg/mL.
In the case of “1018-G5: single substituted 1018 peptide (VRLIGAVRIWRR-NH2) [Peptide 1018-G5]”, in experiment [1], the “Fold change in IL1β relative to no peptide LPS stimulated cells” value came to 1.23 and the “IL1β Production” value amounted to 1620 pg/mL. In addition, the “% Biofilm inhibition” value in experiment [2] is given as 38%. In addition, in experiment [3], the “Fold increase” value is 13 and the “MCP1” value is 2090 pg/mL.
Turning to “1002-V8: single substituted 1002 peptide (VQRWLIVVRIRK-NH2) [Peptide 1002-V8]”, in experiment [1], the “Fold change in IL1β relative to no peptide LPS stimulated cells” value stood at 0.08 and the “IL1β Production” value amounted to 198 pg/mL. Moreover, the “% Biofilm inhibition” value in experiment [2] was found to be 56%. In experiment [3], the “Fold increase” value was 7.1 and the “MCP1” value amounted to 1468.2 pg/mL.
On the same counts, the results for “1018-K7: single substituted 1018 peptide (VRLIVAKRIWRR-NH2) [Peptide 1018-K7]” are 0.93, 1222 pg/mL, 23%, 1.5 and 92 pg/mL.
The like results for “1018-K3: single substituted 1018 peptide (VRKIVAVRIWRR-NH2) [Peptide 1018-K3]” were, in that order, 1.13, 1489 pg/mL, 15%, 49 and 8203 pg/mL.
On the same counts, the results for “1002-A2: single substituted 1002 peptide (VARWLIVWRIRK-NH2) [Peptide 1002-A2]” are 0.05, 127 pg/mL, 68%, 2.0 and 245.4 pg/mL.
Turning to “1018-V3: single substituted 1018 peptide (VRVIVAVRIWRR-NH2) [Peptide 1018-V3]”, in experiment [1], the “Fold change in IL1β relative to no peptide LPS stimulated cells” value was 0.22 and the “IL1β Production” value worked out at 295 pg/mL. The “% Biofilm inhibition” value in experiment [2] worked out at 76%. In addition, in experiment [3], the “Fold increase” value is given as 16 and the “MCP1” value amounted to 2550 pg/mL.
On to “1002-R7: single substituted 1002 peptide (VQRWLIRWRIRK-NH2) [Peptide 1002-R7]”, for which, in experiment [1], the “Fold change in IL1β relative to no peptide LPS stimulated cells” value was determined as 0.16 and the “IL1β Production” value was determined as 382 pg/mL. Moreover, the “% Biofilm inhibition” value in experiment [2] was determined as 58%. Besides, in experiment [3], the “Fold increase” value was determined as 2.1 and the “MCP1” value amounted to 270.8 pg/mL.
Take “HH2-L5: single substituted HH2 peptide (VQLRLRVAVIRA-NH2)”: in experiment [1], the “Fold change in IL1β relative to no peptide LPS stimulated cells” value turned out to be 0.88 and the “IL1β Production” value amounted to 1156 pg/mL. The “% Biofilm inhibition” value in experiment [2] came out at 58%. In experiment [3], the “Fold increase” value amounted to 1.6 and the “MCP1” value is 97 pg/mL.
On the same counts, the results for “HH2-Q10: single substituted HH2 peptide (VQLRIRVAVQRA-NH2)” are 0.90, 1180 pg/mL, 61%, 31 and 5057 pg/mL.
On the same counts, the results for “1018-Q5: single substituted 1018 peptide (VRLIQAVRIWRR-NH2) [Peptide 1018-Q5]” are 1.03, 1354 pg/mL, 13%, 0.7 and -54 pg/mL.
On the same counts, the results for “1002-V6: single substituted 1002 peptide (VQRWLVVWRIRK-NH2) [Peptide 1002-V6]” are 0.05, 127 pg/mL, 71%, 1.5 and 113.5 pg/mL.
As to “1018-V4: single substituted 1018 peptide (VRLVVAVRIWRR-NH2) [Peptide 1018-V4]”, in experiment [1], the “Fold change in IL1β relative to no peptide LPS stimulated cells” value is listed as 0.11 and the “IL1β Production” value was determined as 144 pg/mL. Besides, the “% Biofilm inhibition” value in experiment [2] is recorded as 75%. For the same substance, in experiment [3], the “Fold increase” value worked out at 1.2 and the “MCP1” value turned out to be 29 pg/mL.
On the same counts, the results for “1002-A9: single substituted 1002 peptide (VQRWLIVWAIRK-NH2) [Peptide 1002-A9]” are 0.05, 127 pg/mL, 58%, 14.4 and 3239.9 pg/mL.
The like results for “HH2-R3: single substituted HH2 peptide (VQRRIRVAVIRA-NH2)” were, in that order, 1.33, 1746 pg/mL, 0%, 60 and 9987 pg/mL.
Take “1002-A8: single substituted 1002 peptide (VQRWLIVARIRK-NH2) [Peptide 1002-A8]”: in experiment [1], the “Fold change in IL1β relative to no peptide LPS stimulated cells” value was 0.09 and the “IL1β Production” value was 219 pg/mL. In addition, in experiment [2], the “% Biofilm inhibition” value is given as 52%. Besides, in experiment [3], the “Fold increase” value is recorded as 0.9 and the “MCP1” value was -36.2 pg/mL.
On the same counts, the results for “1018-A2: single substituted 1018 peptide (VALIVAVRIWRR-NH2) [Peptide 1018-A2]” are 0.10, 127 pg/mL, 64%, 0.6 and -65 pg/mL.
The like results for “HH2-V4: single substituted HH2 peptide (VQLVIRVAVIRA-NH2)” were, in that order, 0.67, 877 pg/mL, 60%, 20 and 3216 pg/mL.
On the same counts, the results for “HH2-G1: single substituted HH2 peptide (GQLRIRVAVIRA-NH2)” are 1.17, 1533 pg/mL, 65%, 1.9 and 157 pg/mL.
